{"source": "patent US7282513B2", "about": "“Heteroaryl substituted spirocyclic sulfamides for inhibition of gamma secretase” (Merck Sharp & Dohme Limited, priority 2002, dated 2007)"}
{"smiles": "Cn1nc(-c2ccc(F)cc2)cc1-c1ccc2c(c1)C[C@H]1CC[C@@H](C2)[C@]12CN(CC(F)(F)F)S(=O)(=O)N2", "note": "(single isomer, unassigned) [Example 15]", "values": [{"measurement": "melting point", "value": 185, "unit": "°C"}]}
